Test results as given in patent US20060122281A1, “Regimen for treating prostate tissue and surgical kit for use in the regimen” (AMS Research Corporation, priority 2001, published 2006).
Values joined by “and” are separate entries in the source; they are usually repeats but may differ in a detail not shown here. Equal values may be shown once.

Columns and labels:
[1] = dosages up to 200 mg per day, long-term clinical trials; cited from earlier work
[2] = system: Human patients exhibiting symptoms of BPH; assay: International Prostate Symptom Score questionnaire; assay type: in vivo; details: individual patient
Protocol: Measurements of each patient's prostate size were obtained prior to ethanol ablation by MRI. Flowmetry measurements were also taken. Each patient was then administered ethanol ablation therapy by transurethral injection directly into prostate tissue, as summarized in Table 1. Total amount of ethanol injected ranged from about 22% to about 38% relative to the volume of the patient's prostate. The number of injection sites ranged from 3 to 11; the average number of injection sites was 5.8. Following ethanol ablation therapy, each patient was administered bicalutamide, 150 mg orally each day for sixty days, beginning on the day of treatment. Survey data was also acquired pre-treatment and at the three-month and six-month followups. Patients were evaluated for subjective symptom severity using an International Prostate Symptom Score questionnaire.

[3] = system: Human patients exhibiting symptoms of BPH; assay: Prostate size by MRI after transurethral ethanol ablation with coadministered bicalutamide; assay type: in vivo; details: individual patient
Protocol: (§1) Measurements of each patient's prostate size were obtained prior to ethanol ablation by MRI. Flowmetry measurements were also taken.
(§2) Each patient was then administered ethanol ablation therapy by transurethral injection directly into prostate tissue, as summarized in Table 1. Total amount of ethanol injected ranged from about 22% to about 38% relative to the volume of the patient's prostate. The number of injection sites ranged from 3 to 11; the average number of injection sites was 5.8. Following ethanol ablation therapy, each patient was administered bicalutamide, 150 mg orally each day for sixty days, beginning on the day of treatment.
(§3) A three-month and six-month follow-up examination was done for each patient to evaluate prostate size and flowmetry results.

[4] = system: Human patients exhibiting symptoms of BPH; assay: Flowmetry after transurethral ethanol ablation with coadministered bicalutamide; assay type: in vivo; details: individual patient
Protocol: as §1, §2, §3

prostate weight = details: compared with antiandrogens presently used; cited from earlier work

| Compound | tolerability [1] | IPSS at 3 months ([2]; 3 months after ethanol ablation plus bicalutamide 150 mg orally daily for sixty days) | IPSS at 6 months ([2]; 6 months after ethanol ablation plus bicalutamide 150 mg orally daily for sixty days) | Post-treatment Evaluation (3 months) Size ([3]; 3 months after transurethral ethanol ablation plus bicalutamide 150 mg orally each day for sixty days) | Post-treatment Evaluation (6 months) Size ([3]; 6 months after transurethral ethanol ablation plus bicalutamide 150 mg orally each day for sixty days) | Post-treatment Evaluation (3 months) Qmax ([4]; maximum flow rate, 3 months after ethanol ablation plus bicalutamide 150 mg orally daily for sixty days) | Post-treatment Evaluation (6 months) Qmax ([4]; maximum flow rate, 6 months after ethanol ablation plus bicalutamide 150 mg orally daily for sixty days) | Post-treatment Evaluation (3 months) Qmed ([4]; median flow rate, 3 months after ethanol ablation plus bicalutamide 150 mg orally daily for sixty days) | Post-treatment Evaluation (6 months) Qmed ([4]; median flow rate, 6 months after ethanol ablation plus bicalutamide 150 mg orally daily for sixty days) | potency in reducing prostate weight (prostate weight) |
| --- | --- | --- | --- | --- | --- | --- | --- | --- | --- | --- |
| CC(O)(CS(=O)(=O)c1ccc(F)cc1)C(=O)Nc1ccc(C#N)c(C(F)(F)F)c1 (racemic) [bicalutamide, (+−) N-[4-cyano-3-(trifluoromethyl)phenyl]-3-[(4-fluorophenyl)sulfonyl]-2-hydroxy-2-methyl propanimide] | well-tolerated | 10 (2×) and 4 (2×) and 8 (2×) and 24 and 9 and 21 and 14 and 15 and 13 and 3 and 20 and 18 | 9 (2×) and 6 and 8 (4×) and 14 and 12 (2×) and 7 and 10 and 3 and 20 and 4 | 40 g (2×) and 36 g and 28 g and 30 g (2×) and 25 g and 78 g (2×) and 63 g and 45 g and 42 g and 54 g and 98 g and 15 g | 28 g (2×) and 30 g and 20 g (3×) and 21 g (2×) and 19 g (2×) and 32 g and 18 g (2×) and 27 g and 23 g | 18 mL/sec (2×) and 7 mL/sec and 4 mL/sec and 12 mL/sec (2×) and 11 mL/sec (2×) and 17 mL/sec (2×) and 13 mL/sec (2×) and 15 mL/sec and 10 mL/sec and 21 mL/sec | 18 mL/sec and 13 mL/sec (2×) and 19 mL/sec and 15 mL/sec (4×) and 14 mL/sec and 30 mL/sec and 17 mL/sec (2×) and 12 mL/sec and 20 mL/sec and 21 mL/sec | 11 mL/sec and 3 mL/sec (2×) and 4 mL/sec and 7 mL/sec (4×) and 5 mL/sec (3×) and 8 mL/sec and 2 mL/sec (2×) and 9 mL/sec | 11 mL/sec (3×) and 10 mL/sec (4×) and 9 mL/sec (5×) and 13 mL/sec and 8 mL/sec and 5 mL/sec | – |
| CC1(C)C(=O)N(c2ccc(C#N)c(C(F)(F)F)c2)C(=O)N1CC#N [RU 58642] | – | – | – | – | – | – | – | – | – | more potent |
